Source: patent US11352322B2, “Cyclopropyl-amide compounds as dual LSD1/HDAC inhibitors” (Jubilant Epicore LLC, priority 2016, dated 2022)
Where a name gives a salt, the structure may show the parent alone.

What was measured:
[1] = Metabolic stability in liver microsomes, MLM; conditions: 1 μM, NADPH
Description: (§1) The microsomal suspension was prepared by adding liver microsomes to 100 mM potassium phosphate buffer (pH7.4) to give a final protein concentration of 0.5 mg/mL. The stock solution of NCE (10 mM in DMSO) was added to the microsomes to provide a final concentration of 1 μM. […] Samples were vortexed and centrifuged at 5,000 rpm for 10 min to remove proteins. Supernatant were analyzed on LC-MS/MS.

[2] = target: HDAC6 human recombinant enzyme (Homo sapiens (Human), UniProt Q9UBN7); test: Histone Deacetylase Assay (BPS Biosciences), HDAC6; format: biochemical
Excerpt: Histone Deacetylase Assay (BPS Biosciences)
Histone deacetylase assay was done as per manufacturer's instructions.

[3] = tested on: MM1S; test: Anticancer activity: Alamar Blue assay, MM1S; format: cell-based; conditions: Homo sapiens, MM1.S, read-out: MM1S EC50
Description: Cells were seeded at 5000 cells/per well in 96-well tissue culture plate and incubated at 37° C./5% CO2. After 16-24 hours, fresh media was added to the wells. Compounds were then (1% DMSO conc.) added to the cells at 10 concentrations ranging from 10-0.0005 uM prepared in 3-fold serial dilutions. Cells were incubated for 68-72 h at 37° C./5% CO2. Alamar Blue™ reagent was added and incubated for 1-3 hours at 37° C./5% CO2. Plates were read on fluorescence reader at 540 nm excitation, 590 nm emission wave lengths.

[4] = Metabolic stability in liver microsomes, HLM; conditions: 1 μM, NADPH
Description: as §1

Chain of HDAC6 human recombinant enzyme (Q9UBN7 whole entry): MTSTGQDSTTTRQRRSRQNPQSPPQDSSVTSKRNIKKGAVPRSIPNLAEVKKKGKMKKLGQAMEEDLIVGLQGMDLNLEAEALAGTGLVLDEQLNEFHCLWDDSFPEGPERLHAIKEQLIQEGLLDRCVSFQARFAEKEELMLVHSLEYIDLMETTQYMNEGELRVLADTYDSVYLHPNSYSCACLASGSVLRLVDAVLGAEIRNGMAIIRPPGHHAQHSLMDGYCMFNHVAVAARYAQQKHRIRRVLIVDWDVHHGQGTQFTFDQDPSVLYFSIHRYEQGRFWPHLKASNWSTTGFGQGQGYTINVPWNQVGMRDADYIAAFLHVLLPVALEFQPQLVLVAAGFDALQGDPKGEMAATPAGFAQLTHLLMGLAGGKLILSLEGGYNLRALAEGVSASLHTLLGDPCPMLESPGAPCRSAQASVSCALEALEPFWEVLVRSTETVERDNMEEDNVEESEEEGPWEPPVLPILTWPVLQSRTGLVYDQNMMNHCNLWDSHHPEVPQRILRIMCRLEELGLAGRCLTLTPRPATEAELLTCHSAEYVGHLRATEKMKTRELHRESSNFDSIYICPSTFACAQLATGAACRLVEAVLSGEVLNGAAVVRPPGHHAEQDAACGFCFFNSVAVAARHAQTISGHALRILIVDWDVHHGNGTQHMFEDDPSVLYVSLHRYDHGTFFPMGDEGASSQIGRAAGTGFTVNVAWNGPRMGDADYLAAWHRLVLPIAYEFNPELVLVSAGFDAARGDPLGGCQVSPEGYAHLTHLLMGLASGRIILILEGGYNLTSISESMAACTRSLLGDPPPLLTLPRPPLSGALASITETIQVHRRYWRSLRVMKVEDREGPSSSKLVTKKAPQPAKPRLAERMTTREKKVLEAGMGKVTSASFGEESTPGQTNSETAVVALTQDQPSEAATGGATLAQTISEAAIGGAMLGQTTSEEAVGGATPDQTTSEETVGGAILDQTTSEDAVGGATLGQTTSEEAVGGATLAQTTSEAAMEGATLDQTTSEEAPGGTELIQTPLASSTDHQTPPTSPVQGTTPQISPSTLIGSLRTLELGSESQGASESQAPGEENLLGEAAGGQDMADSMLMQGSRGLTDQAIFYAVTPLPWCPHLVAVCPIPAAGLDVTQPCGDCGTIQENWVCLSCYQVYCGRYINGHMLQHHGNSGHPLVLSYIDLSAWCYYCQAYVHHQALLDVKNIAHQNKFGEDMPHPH

## O=C(NO)c1ccc(CC(=O)N2CCC(CN[C@@H]3C[C@H]3c3ccccc3)CC2)cc1 [Example 84A, N-hydroxy-4-(2-oxo-2-(4-((((1R,2S)-2-phenylcyclopropyl)amino)methyl)piperidin-1-yl)ethyl)benzamide TFA Salt]
[1]
  Metabolic stability MLM % remaining in 30 min: 41%
[2]
  IC50: 22 nM
[3]
  EC50: 26 nM
[4]
  Metabolic stability HLM % remaining in 30 min: 78%

## O=C(NO)c1ccc(CCCN2CCC(CNC3CC3c3cnn(-c4ccccc4)c3)CC2)cc1 (stereo not drawn) [Example 68, N-hydroxy-4-(3-(4-(((2-(1-phenyl-1H-pyrazol-4-yl)cyclopropyl)amino)methyl)piperidin-1-yl)propyl)benzamide TFA Salt]
[2]
  IC50: 104 nM

## O=C(NO)c1cnc(N2CCC(CN[C@H]3C[C@@H]3c3ccc(F)cc3)CC2)nc1 [Example 21, 2-(4-((((1S,2R)-2-(4-fluorophenyl)cyclopropyl)amino)methyl)piperidin-1-yl)-N-hydroxypyrimidine-5-carboxamide TFA Salt]
[1]
  Metabolic stability MLM % remaining in 30 min: 51%
[2]
  IC50: 91 nM
[3]
  EC50: 9 nM
[4]
  Metabolic stability HLM % remaining in 30 min: 86%

## O=C(NO)c1ccc(CC(=O)N2CCC(CN[C@H]3C[C@@H]3c3ccccc3)CC2)cc1 [Example 84B, N-hydroxy-4-(2-oxo-2-(4-((((1S,2R)-2-phenylcyclopropyl)amino)methyl)piperidin-1-yl)ethyl)benzamide TFA Salt]
[1]
  Metabolic stability MLM % remaining in 30 min: 45%
[2]
  IC50: 25 nM
[3]
  EC50: 259 nM
[4]
  Metabolic stability HLM % remaining in 30 min: 75%

## Nc1ccccc1NC(=O)c1ccc(CCCn2cnc(CNC3CC3c3ccc(F)c(F)c3)c2)cc1 (stereo not drawn) [Example 135, N-(2-aminophenyl)-4-(3-(4-(((2-(3,4-difluorophenyl)cyclopropyl)amino)methyl)-1H-imidazol-1-yl)propyl)benzamide TFA Salt]
[1]
  Metabolic stability MLM % remaining in 30 min: 8%
[2]
  IC50: > 10000 nM
[3]
  EC50: 247 nM
[4]
  Metabolic stability HLM % remaining in 30 min: 2%

## O=C(NO)c1ccc2c(c1)CN(C(=O)CNC1CC1c1ccc(F)cc1)CC2 (stereo not drawn) [Example 104, 2-(2-((2-(4-fluorophenyl)cyclopropyl)amino)acetyl)-N-hydroxy-1,2,3,4-tetrahydroisoquinoline-7-carboxamide TFA Salt]
[1]
  Metabolic stability MLM % remaining in 30 min: 77%
[2]
  IC50: 32 nM
[3]
  EC50: 269 nM
[4]
  Metabolic stability HLM % remaining in 30 min: 80%

## Nc1ccccc1NC(=O)c1ccc(CCN2CCC(CNC3CC3c3ccccc3)CC2)cc1 (stereo not drawn) [Example 139, N-(2-aminophenyl)-4-(2-(4-(((2-phenylcyclopropyl)amino)methyl)piperidin-1-yl)ethyl)benzamide TFA Salt]
[2]
  IC50: > 10000 nM

## O=C(NO)c1ccc(/C=C/C(=O)N2CCC(CN[C@H]3C[C@@H]3c3ccccc3)CC2)cc1 [Example 114B, N-hydroxy-4-((E)-3-oxo-3-(4-((((1S,2R)-2-phenylcyclopropyl)amino)methyl)piperidin-1-yl)prop-1-en-1-yl)benzamide TFA Salt]
[1]
  Metabolic stability MLM % remaining in 30 min: 43%
[2]
  IC50: 33 nM
[3]
  EC50: 97 nM
[4]
  Metabolic stability HLM % remaining in 30 min: 73%

## O=C(NO)c1cc2c(s1)CCN(C(=O)CN[C@H]1C[C@@H]1c1ccc(F)cc1)C2 [Example 103B, 5-(2-(((1S,2R)-2-(4-fluorophenyl)cyclopropyl)amino)acetyl)-N-hydroxy-4,5,6,7-tetrahydrothieno[3,2-c]pyridine-2-carboxamide TFA Salt]
[1]
  Metabolic stability MLM % remaining in 30 min: 73%
[2]
  IC50: 36 nM
[3]
  EC50: 15 nM
[4]
  Metabolic stability HLM % remaining in 30 min: 76%

## Nc1ccccc1NC(=O)c1cnc(CCCN2CCC(CNC3CC3c3ccccc3)CC2)s1 (stereo not drawn) [Example 154, N-(2-aminophenyl)-2-(3-(4-(((2-phenylcyclopropyl)amino)methyl)piperidin-1-yl)propyl)thiazole-5-carboxamide TFA Salt]
[2]
  IC50: > 10000 nM

## O=C(NO)c1ccc(CN2CCN(C(=O)CNC3CC3c3ccccc3)CC2)cc1 (stereo not drawn) [Example 91, N-hydroxy-4-((4-(2-((2-phenylcyclopropyl)amino)acetyl)piperazin-1-yl)methyl)benzamide TFA Salt]
[1]
  Metabolic stability MLM % remaining in 30 min: 79%
[3]
  EC50: 468 nM
[4]
  Metabolic stability HLM % remaining in 30 min: 85%

## O=C(NO)c1cnc(N2CCn3cc(CNC4CC4c4ccccc4)nc3C2)nc1 (stereo not drawn) [Example 23, N-hydroxy-2-(2-(((2-phenylcyclopropyl)amino)methyl)-5,6-dihydroimidazo[1,2-a]pyrazin-7(8H)-yl)pyrimidine-5-carboxamide TFA Salt]
[1]
  Metabolic stability MLM % remaining in 30 min: 85%
[3]
  EC50: 11 nM
[4]
  Metabolic stability HLM % remaining in 30 min: 95%

## O=C(NO)c1ccc(CCS(=O)(=O)N2CCC(CNC3CC3c3ccccc3)CC2)cc1 (stereo not drawn) [Example 88, N-hydroxy-4-(2-((4-(((2-phenylcyclopropyl)amino)methyl)piperidin-1-yl)sulfonyl)ethyl)benzamide TFA Salt]
[2]
  IC50: 77 nM

## O=C(NO)c1ccc(OCCCNC2CC2c2ccccc2)cc1 (stereo not drawn) [Example 101, N-hydroxy-4-(3-((2-phenylcyclopropyl)amino)propoxy)benzamide TFA Salt]
[1]
  Metabolic stability MLM % remaining in 30 min: 29%
[3]
  EC50: 29 nM
[4]
  Metabolic stability HLM % remaining in 30 min: 59%

## O=C(/C=C/c1ccc(CNC2CC2c2ccc(OCc3ccc(F)cc3)cc2)cc1)NO (stereo not drawn) [Example 3, (E)-3-(4-(((2-(4-((4-fluorobenzyl)oxy)phenyl)cyclopropyl)amino)methyl)phenyl)-N-hydroxyacrylamide TFA Salt]
[1]
  Metabolic stability MLM % remaining in 30 min: < 5%
[3]
  EC50: 104 nM
[4]
  Metabolic stability HLM % remaining in 30 min: 65%

## Cc1noc(C)c1-c1ccc(C2CC2NCC2CCN(c3ncc(C(=O)NO)cn3)CC2)cc1 (stereo not drawn) [Example 16, 2-(4-(((2-(4-(3,5-dimethylisoxazol-4-yl)phenyl)cyclopropyl)amino)methyl)piperidin-1-yl)-N-hydroxypyrimidine-5-carboxamide TFA Salt]
[1]
  Metabolic stability MLM % remaining in 30 min: 25%
[3]
  EC50: 17 nM
[4]
  Metabolic stability HLM % remaining in 30 min: 47%

## Nc1ccccc1NC(=O)c1ccc(CCCN2CCC(CNC3CC3c3cnn(-c4ccccc4)c3)CC2)cc1 (stereo not drawn) [Example 129, N-(2-aminophenyl)-4-(3-(4-(((2-(1-phenyl-1H-pyrazol-4-yl)cyclopropyl)amino)methyl)piperidin-1-yl)propyl)benzamide TFA Salt]
[2]
  IC50: > 10000 nM

## O=C(NO)c1cnc(N2CCC(NC3CC3c3ccc(F)cc3)CC2)nc1 (stereo not drawn) [Example 10, 2-{4-[2-(4-Fluoro-phenyl)-cyclopropylamino]-piperidin-1-yl}-pyrimidine-5-carboxylic acid hydroxyamide TFA salt]
[1]
  Metabolic stability MLM % remaining in 30 min: 55%
[3]
  EC50: 9 nM
[4]
  Metabolic stability HLM % remaining in 30 min: 81%

## O=C(NO)c1ccc(OCCCN2CCC(CNC3CC3c3ccccc3)CC2)cc1 (stereo not drawn) [Example 100, N-hydroxy-4-(3-(4-(((2-phenylcyclopropyl)amino)methyl)piperidin-1-yl)propoxy)benzamide TFA Salt]
[1]
  Metabolic stability MLM % remaining in 30 min: 57%
[3]
  EC50: 17 nM
[4]
  Metabolic stability HLM % remaining in 30 min: 63%

## Nc1ccccc1NC(=O)c1ccc(CCCN2CCC(CNC3CC3c3ccc(F)c(F)c3)CC2)cc1 (stereo not drawn) [Example 124, N-(2-aminophenyl)-4-(3-(4-(((2-(3,4-difluorophenyl)cyclopropyl)amino)methyl)piperidin-1-yl)propyl)benzamide TFA Salt]
[1]
  Metabolic stability MLM % remaining in 30 min: 68%
[3]
  EC50: 14 nM
[4]
  Metabolic stability HLM % remaining in 30 min: 73%

## O=C(NO)c1cnc(N2CCC(CNC3CC3c3ccc(-c4ccc(Cl)cc4)cc3)CC2)nc1 (stereo not drawn) [Example 14, 2-(4-(((2-(4′-chloro-[1,1′-biphenyl]-4-yl)cyclopropyl)amino)methyl)piperidin-1-yl)-N-hydroxypyrimidine-5-carboxamide TFA Salt]
[1]
  Metabolic stability MLM % remaining in 30 min: 82%
[3]
  EC50: 8 nM
[4]
  Metabolic stability HLM % remaining in 30 min: 88%

## Nc1ccccc1NC(=O)c1ccc(CCCN2CCC(CNC3CC3c3ccc(F)cc3)CC2)cc1 (stereo not drawn) [Example 122, N-(2-aminophenyl)-4-(3-(4-(((2-(4-fluorophenyl)cyclopropyl)amino)methyl)piperidin-1-yl)propyl)benzamide TFA Salt]
[1]
  Metabolic stability MLM % remaining in 30 min: 72%
[3]
  EC50: 15 nM
[4]
  Metabolic stability HLM % remaining in 30 min: 77%

## COc1ccc(C2CC2NC2CCN(c3ncc(C(=O)NO)cn3)CC2)cc1 (stereo not drawn) [Example 19, N-hydroxy-2-(4-((2-(4-methoxyphenyl)cyclopropyl)amino)piperidin-1-yl)pyrimidine-5-carboxamide TFA Salt]
[1]
  Metabolic stability MLM % remaining in 30 min: 71%
[3]
  EC50: 7 nM
[4]
  Metabolic stability HLM % remaining in 30 min: 83%

## O=C(NO)c1ccc(CCCNC2CC2c2ccc(F)cc2)cc1 (stereo not drawn) [Example 30, 4-(3-((2-(4-fluorophenyl)cyclopropyl)amino)propyl)-N-hydroxybenzamide TFA Salt]
[1]
  Metabolic stability MLM % remaining in 30 min: 51%
[3]
  EC50: 45 nM
[4]
  Metabolic stability HLM % remaining in 30 min: 16%
